Experimental data: patent publication US6667278B2, “Non-steroidal mimetics of brassinolide” (University Technologies International Inc., priority 2000, dated 2003)

Tests used:
[1] = system: dwarf rice Oryza satina var. Tan-ginbozu; test: rice leaf lamina inclination bioassay; assay type: in vivo
Experimental: Mimetics 3-12, along with brassinolide for comparison, were subjected to the rice leaf lamina inclination bioassay^30. This technique is a rapid, highly sensitive and convenient means for detecting and measuring brassinosteroid bioactivity. Strongly active brassinosteroids such as brassinolide can be readily detected at doses as low as 1 ng/plant. The assay is based on the downward movement response of the second leaf lamina angle of rice seedlings to the application of active brassinosteroids. Thus, a decrease in the leaf angle occurs from about 160 degrees (i.e. nearly upright) in control plants to angles of less than 90 degrees when a strong response is measured. A plot of leaf lamina angle vs. the logarithm of the dose in ng provides a convenient indication of bioactivity.
Brassinosteroids show synergy with auxins such as indole-3-acetic acid (IAA) in this bioassay^7,30,31. Thus, co-application of a given dose of the brassinosteroid with IAA generally elicits a similar decrease in the leaf lamina angle as would be observed with a dose one or two orders of magnitude higher of the brassinosteroid alone. […] The bioassays of mimetics 3-12 were therefore run both in the presence and absence of 1000 ng of added IAA and mimetic 11 was also bioassayed in the presence of 5000 ng of IAA.
Mimetics 3-12, along with brassinolide as a standard, were tested for biological activity by means of the rice leaf lamina assay, using a dwarf rice Oryza satina var. Tan-ginbozu, as described^30. The compounds were dissolved in 95% ethanol, except for mimetic 11 where DMSO was used due to poor solubility in ethanol. To a solution of mimetic 11 in 50 microliters of DMSO was added 550 microliters of a 2.5% aqueous solution of Atlas®, an ICI formulating material, to improve uptake. The test solutions were then applied as 0.5 μl microdrops to the rice plants 48 h after planting the germinated seeds on 0.8% water agar. At high doses, several rounds of application of the 0.5 μl microdrops were required to attain the desired dose per plant. Where IAA was a co-treatment, 1,000 or 5,000 ng of IAA was similarly applied per plant ca. 2 h prior to the application of brassinolide and mimetics 3-12. The resultant leaf lamina angle was measured 60-65 h later. For an individual bioassay, each data point is the mean of the leaf angles from ca. 36 plants for doses up to 100 ng and from ca. 24 plants for the 1000 and 10,000 ng doses. Parallel control applications of solvent and IAA (1000 ng) were also carried out. […] Similarly, the results for brassinolide plus IAA, which were reported earlier,^14,16,17a are not shown here for purposes of clarity.

solubility in ethanol = assay type: physicochemical
[2] = system: dwarf rice Oryza satina var. Tan-ginbozu; conditions: in vivo; cited from earlier work
rice, beans and others = conditions: applied exogenously; cited from earlier work
[3] = applied together with IAA in 95% ethanol
[4] = all dosage levels, with or without IAA application

Q: For `Oc1ccc(C=Cc2ccc(O)c3c2CC(O)C(O)C3)c2c1CC(O)C(O)C2` (mixture of isomers) [Mimetic 6, (E)-(±)-1,2-Bis[4,6α,7α-trihydroxy-5,6,7,8-tetrahydronaphthyl]ethene and its Meso Isomer], which “bioactivity in the rice leaf lamina inclination assay” value (shortened to “bioactivity”) [1, 3] is on record?
A: significant bioactivity

Q: What about the “dose that produced a significant bioassay response” value [1, 3] of the same molecule?
A: 10000 ng

Q: For `O=C1CC=C(C#CC2=CCC(=O)C3CC(O)C(O)CC23)C2CC(O)C(O)CC12` (mixture of isomers) [Mimetic 10, (±)-1,2-Bis[trans-(4aα,8aβ)-4-oxo-6α,7α-dihydroxy-4a,5,6,7,8,8a-hexahydro-(3H)-naphthyl]ethyne and its Meso Isomer], which “bioactivity” value [1, 4] is on record?
A: devoid of activity

Q: What does the source list for `O=C1CC=C(C=CC2=CCC(=O)C3CC(O)C(O)CC23)C2CC(O)C(O)CC12` (mixture of isomers) [Mimetic 11, (E)-1,2-Bis[trans-(4aα,8aβ)-4-oxo-6α,7α-dihydroxy-4a,5,6,7,8,8a-hexahydro-(3H)-naphthyl]ethene and its Meso Isomer]?
A: bioactivity in the rice leaf lamina inclination assay ([1]; IAA increased to 5000 ng, DMSO diluted with 2.5% aqueous Atlas, compared with 1000 ng IAA): even further enhanced; bioactivity in the rice leaf lamina inclination assay ([1]; applied together with 1000 ng of IAA, DMSO diluted with 2.5% aqueous Atlas): active across a wide range of doses; dose at which significant activity is displayed ([1]; with 5000 ng of IAA, DMSO/Atlas): 0.01 ng; solubility in ethanol (solubility in ethanol): poor

Q: Which “bioactivity” value [1, 3] does the source give for `Oc1cc(C#Cc2ccc3c(c2)CC(O)C(O)C3)cc2c1CC(O)C(O)C2` (racemic) [Mimetic 4, (±)-1-[4,6α,7α-Trihydroxy-5,6,7,8-tetrahydronaphthyl]-2-[6α′,7α∝-dihydroxy-5′,6′,7′,8′-tetrahydronaphthyl]ethyne as Two (±) Pairs] here?
A: modest, but statistically significant activity

Q: For `Oc1ccc(C#Cc2ccc(O)c3c2CC(O)C(O)C3)c2c1CC(O)C(O)C2` (single isomer, unassigned) [Mimetic 3, (±)-1,2-Bis[4,6α,7α-trihydroxy-5,6,7,8-tetrahydronaphthyl]ethyne and its Meso Isomer], which “bioactivity” value [1, 3] is on record?
A: modest, but statistically significant activity

Q: And the “dose that produced a significant bioassay response” value [1, 3]?
A: 10,000 ng

Q: For `OC1Cc2ccc(C#Cc3ccc4c(c3)CC(O)C(O)C4)cc2CC1O` (single isomer, unassigned) [Mimetic 5, (±)-1,2-Bis[6α,7α-dihydroxy-5,6,7,8-tetrahydronaphthyl]ethyne and its Meso Isomer], which “bioactivity” value [1, 4] is on record?
A: completely inactive

Q: With `OC1Cc2ccc(/C=C/c3ccc4c(c3)CC(O)C(O)C4)cc2CC1O` (single isomer, unassigned) [Mimetic 7, (E)-(±)-1,2-Bis[6α,7α-dihydroxy-5,6,7,8-tetrahydronaphthyl]ethene and its Meso Isomer] as the molecule, how does the “bioactivity” value [1, 4] read?
A: completely inactive

Q: Which “bioactivity” value [1, 4] does the source give for `Oc1ccc(CCc2ccc(O)c3c2CC(O)C(O)C3)c2c1CC(O)C(O)C2` (single isomer, unassigned) [Mimetic 8, (±)-1,2-Bis[4,6α,7α-trihydroxy-5,6,7,8-tetrahydronaphthyl]ethane and its Meso Isomer] here?
A: no bioactivity

Q: Which “bioactivity” value [1, 4] does the source give for `O=C1CCC(=NN=C2CCC(=O)C3CC(O)C(O)CC23)C2CC(O)C(O)CC12` (single isomer, unassigned) [Mimetic 12, 6,7-Dihydroxy-2,3,4a,5,6,7,8,8a-octahydro-4-oxo-naphthalenone Azine (Mixture of Isomers)] here?
A: devoid of activity

Q: Which “effect in the bioassay” value ([1]; applied on its own) does the source give for `O=C(O)Cc1c[nH]c2ccccc12` [IAA, indole-3-acetic acid, reference compound] here?
A: without significant effect

Q: For `Oc1cc2c(O)ccc(CCc3ccc(O)c4cc(O)c(O)cc34)c2cc1O` [Mimetic 9, 1,2-Bis(4,6,7-trihydroxynaphthyl)ethane], which “bioactivity” value [1, 4] is on record?
A: no bioactivity

Q: For `CC(C)[C@H](C)[C@@H](O)[C@H](O)[C@@H](C)[C@H]1CC[C@H]2[C@@H]3COC(=O)[C@H]4C[C@H](O)[C@H](O)C[C@]4(C)[C@H]3CC[C@]12C` [brassinolide, (22R, 23R, 24S)-2α,3α,22,23-tetrahydroxy-24-methyl-B-homo-7-oxa-5α-cholestan-6-one], which “dose as low as which readily detected” value [2] is on record?
A: 1 ng/plant

Q: What about the “dose as low as which biological activity is manifested” value (rice, beans and others) of the same molecule?
A: one
